From paper PMC6478823, “A suite of phenotypic assays to ensure pipeline diversity when prioritizing drug-like Cryptosporidium growth inhibitors” (Nature Communications, 2019)
Several values for one entry are separate records, joined by “and”; a condition that tells them apart may be missing. Identical values can stand only once.

What was measured:
C. parvum [1] = format: cell-based, Cryptosporidium parvum; details: compound at EC90; for Invasion Assay: Mean % Inhibition (parasites), Average: average of replicates; for Invasion Assay: Mean % Inhibition (parasites), Replicate 1a: single biological replicate 1; for Invasion Assay: Mean % Inhibition (parasites), Replicate 2a: single biological replicate 2; for Sporozoite invasion: yes/no grouping by phenotypic assay result
Procedure: The first step in infection is host cell invasion, which involves a complex process encompassing oocyst excystation, parasite motility, adhesion, and parasitophorous vacuole formation (Fig. 2a). Our strategy to assay for compounds affecting invasion was simply to expose C. parvum to compounds immediately after triggering excystation and throughout the invasion process, and then enumerate the parasite vacuoles after 3 h, prior to allowing the parasites to replicate (summarized in Fig. 2b).
Fig. 2 Invasion Assay. a Overview of life cycle stage investigated during the invasion assay. Representative TEM images of a C. parvum oocyst and HCT-8 cell shortly after infection (Scale bar = 500 nm). b Schematic of experimental design. […] Each point represents the mean and SD of at least two biological replicates with four technical replicates per experiment.
C. parvum invasion inhibition was measured by modifying the 48 h growth inhibition assay described above. […] In parallel, Iowa strain oocysts were excysted. […] Assay plates were incubated at 37 °C and 5% CO2 for 3 h.

[2] = tested on: C. parvum DMC1 expression; test: Sexual differentiation assay (DMC1 expression); format: cell-based, Cryptosporidium parvum; details: for Asexual to sexual differentiation: Mean % DMC1 inhibition (normalized to host nuclei), Average: average of replicates; for Asexual to sexual differentiation: Mean % DMC1 inhibition (normalized to host nuclei), Replicate 1a: single replicate 1; for Asexual to sexual differentiation: Mean % DMC1 inhibition (normalized to host nuclei), Replicate 2a: single replicate 2; for Asexual to sexual differentiation: Mean % DMC1 inhibition (normalized to host nuclei), Replicate 3a: single replicate 3; for 48 - 72 h DMC1 (asexual to sexual conversion): Mean % DMC1 inhibition (normalized to host nuclei): replicates 1-3 in separate columns
Source text: We utilized DMC1 as a marker of C. parvum sexual development, and used the anti-DMC1 monoclonal antibody to develop a moderate-throughput high-content microscopy assay for characterizing anticryptosporidial compounds (Fig. 6a). […] Therefore, in order to enable numerical comparison of the ability of compounds to block sexual development with moderate throughput, we adopted a strategy of reporting the percent inhibition of DMC1 expression by the previously determined EC90 of each compound in the standard asexual development assay (Fig. 6c and Supplementary Table 2).
Fig. 6 Assay to measure asexual-to-sexual-stage conversion. a Schematic of the experimental approach. […] For b and c the mean and SD combined from at least two biological replicates with four technical replicates per experiment are shown. […] At given time points post-infection, infected cells were washed 3 times with PBS containing 111 mM of D-galactose, fixed for 15 min at room temperature with 4% paraformaldehyde in PBS, and permeabilized with 0.25% triton X-100 in PBS for 10 min at 37 °C. Cells were then washed 3 times with PBS and blocked at least overnight at 4 °C with 1% BSA in PBS (blocking buffer). Cells were stained with monoclonal antibody (1H10G7), either neat culture supernatant or 12.8 µg/mL of purified IgG in blocking buffer for 1 h at 37 °C, followed by 2 washes with PBS. Cells were then co-stained with a 1:500 dilution (4 µg/mL) of Alexa Fluor 568 goat anti-mouse IgG (Invitrogen, catalog# A-11004) and 1.33 µg/mL fluorescein-labeled Vicia villosa lectin (Vector Laboratories, catalog# FL-1231) diluted in blocking buffer for 1 h at 37 °C. Stains were then removed and 0.09 mM Hoechst 33258 (AnaSpec, catalog# AS-83219) also diluted in blocking buffer was added for another 15 min at 37 °C, followed by 2 PBS washes and imaging on a Nikon Eclipse Ti2000 epifluorescence microscope run with NIS-Elements Advanced Research software (Nikon, USA) and equipped with an EXi blue fluorescent microscopy camera (QImaging, Canada). For enumerating parasites, tiled 2 × 2 images with 15% overlapping edges were taken using a 40 × dry objective (0.7 NA), and for finer details, Z stack images were acquired using a 60 × oil objective (1.4 NA). Lectin positive cells in focus were first counted, followed by DMC1.
For compound dose-response studies, the same assay was performed in 384-well plates and imaged using a 20 × dry objective (NA = 0.45). Tiled 4 × 4 to 6 × 6 images were taken. Images were analyzed using ImageJ software and the custom macro provided in Supplementary Method 2.

C. parvum [3] = details: cited from earlier work; for activity in NSG mouse model: ref Jumani, et al. 2018. AAC.
Cryptosporidium = details: cited from earlier work
[4] = compound at asexual EC90, 48-72 h
[5] = ref Love, et al. 2017. PLoS NTD.

| Structure (SMILES) | Invasion Assay: Mean % Inhibition (parasites), Average (C. parvum [1]) [%] | Invasion Assay: Mean % Inhibition (parasites), Replicate 1a (C. parvum [1]) [%] | Invasion Assay: Mean % Inhibition (parasites), Replicate 2a (C. parvum [1]) [%] | Asexual to sexual differentiation: Mean % DMC1 inhibition (normalized to host nuclei), Average [2, 4] [%] | Asexual to sexual differentiation: Mean % DMC1 inhibition (normalized to host nuclei), Replicate 1a [2, 4] [%] | Asexual to sexual differentiation: Mean % DMC1 inhibition (normalized to host nuclei), Replicate 2a [2, 4] [%] | Asexual to sexual differentiation: Mean % DMC1 inhibition (normalized to host nuclei), Replicate 3a [2, 4] [%] | other results |
| --- | --- | --- | --- | --- | --- | --- | --- | --- |
| NC[C@@H]1O[C@H](O[C@H]2[C@@H](O)[C@H](O[C@@H]3[C@@H](O)[C@H](N)C[C@H](N)[C@H]3O[C@H]3O[C@H](CO)[C@@H](O)[C@H](O)[C@H]3N)O[C@@H]2CO)[C@H](N)[C@@H](O)[C@@H]1O [Paromomycin] | -28.42 | -32 | -25 | 43.80 | 58.59 | 65.91 | 6.88 | effect on host cell invasion / parasitophorous vacuole formation (C. parvum [1]; result in words): no significant effect on parasitophorous vacuole formation; activity in NSG mouse model (C. parvum [3]): active |
| CC(C)/N=c1\cc2n(-c3ccc(Cl)cc3)c3ccccc3nc-2cc1Nc1ccc(Cl)cc1 [Clofazimine] | 66.45 | 65 | 68 | 89.18 | 91.44 | 86.93 | – | efficacy in chronic NOD SCID gamma (NSG) mouse model (C. parvum [3]): not efficacious; activity in NOD SCID γ mouse model (C. parvum [3]; [5]): inactive; efficacy in acute, self-resolving IFN-γ KO mouse model (Cryptosporidium): efficacious; activity in IFN-γ knockout mouse model (Cryptosporidium; [5]): active |
| O=C(Nc1ccc(Cl)cc1)N1CCN(c2ccc3nncn3n2)CC1 [D-1] | -25.16 | -22 | -29 | 83.01 | 87.55 | 90.87 | 72.73 | 48 - 72 h DMC1 (asexual to sexual conversion): Mean % DMC1 inhibition (normalized to host nuclei) ([2]; D-1 at log conc (µM) 0.16): -9.83% and -22.30% and 31.77%; 48 - 72 h DMC1 (asexual to sexual conversion): Mean % DMC1 inhibition (normalized to host nuclei) ([2]; D-1 at log conc (µM) 0.46): 54.19% and 44.15% and 54.54%; 48 - 72 h DMC1 (asexual to sexual conversion): Mean % DMC1 inhibition (normalized to host nuclei) ([2]; D-1 at log conc (µM) 0.58): 71.57% and 53.72% and 69.21%; 48 - 72 h DMC1 (asexual to sexual conversion): Mean % DMC1 inhibition (normalized to host nuclei) ([2]; D-1 at log conc (µM) 0.71): 84.32%; 48 - 72 h DMC1 (asexual to sexual conversion): Mean % DMC1 inhibition (normalized to host nuclei) ([2]; D-1 at log conc (µM) 1.18): 94.93% and 94.90% and 95.67%; 48 - 72 h DMC1 (asexual to sexual conversion): Mean % DMC1 inhibition (normalized to host nuclei) ([2]; D-1 at log conc (µM) 1.66): 95.75% and 98.23% and 93.36%; 48 - 72 h DMC1 (asexual to sexual conversion): Mean % DMC1 inhibition (normalized to host nuclei) ([2]; D-1 at log conc (µM) -0.14): 2.15% and -53.03% and -30.95%; 48 - 72 h DMC1 (asexual to sexual conversion): Mean % DMC1 inhibition (normalized to host nuclei) ([2]; D-1 at log conc (µM) -0.62): -16.25% and -49.91% and -40.61%; 48 - 72 h DMC1 (asexual to sexual conversion): Mean % DMC1 inhibition (normalized to host nuclei) ([2]; D-1 at log conc (µM) -1.10): -18.85% and -40.36% and -14.22%; activity in the DMC1 (sexual development) assay relative to asexual assay ([2]; compound added at 48 h, read at 72 h, result in words): equal potency before and after 48 h; Asexual to sexual differentiation: Mean % DMC1 inhibition (normalized to host nuclei), Replicate 4a ([2]; compound at asexual EC90, 48-72 h, single replicate 4): 66.31%; Asexual to sexual differentiation: Mean % DMC1 inhibition (normalized to host nuclei), Replicate 5a ([2]; compound at asexual EC90, 48-72 h, single replicate 5): 89.27%; Asexual to sexual differentiation: Mean % DMC1 inhibition (normalized to host nuclei), Replicate 6a ([2]; compound at asexual EC90, 48-72 h, single replicate 6): 91.32%; EC50 ([2]; inhibition of DMC1 expression from 48 to 72 h, range in brackets, read-out: 48 − 72 h DMC1 (asexual to sexual conversion): EC50): 2.4 µM; efficacy in chronic NSG mouse model (C. parvum [3]): efficacious; activity in NSG mouse model (C. parvum [3]): Active; efficacy in acute IFN-γ KO mouse model (Cryptosporidium): efficacious |
| CCOc1ccc(Cl)c2c1B(O)OC2CN (stereo not shown) [AN6426] | -16.44 | -18 | -15 | 62.47 | 60.83 | 64.12 | – | – |
| CSc1ccccc1C(=O)Nc1nc(-c2ccccn2)cs1 [MMV001246] | -7.41 | -15 | 0.521 | 45.66 | 48.08 | 43.24 | – | – |
| c1ccc(CNc2nc(NC3CCCC3)nc3ccccc23)cc1 [B-5] | 82.99 | 81 | 85 | 7.84 | 11.99 | -2.17 | 13.72 | Sporozoite invasion (C. parvum [1]): yes |
| CC(C)c1c(C(=O)Nc2ccccc2)c(-c2ccccc2)c(-c2ccc(F)cc2)n1CC[C@@H](O)C[C@@H](O)CC(=O)O [Atorvastatin] | -38.43 | -51 | -26 | 36.34 | 55.77 | 16.91 | – | – |
| Oc1c(C(Nc2ccccn2)c2cccc(Oc3ccccc3)c2)ccc2cccnc12 (stereo not shown) [A-2] | -15.19 | -13 | -17 | 36.33 | 56.25 | 16.42 | – | Sporozoite invasion (C. parvum [1]): no |
